The subject of series [1] is pentylenetetrazole (PTZ)-induced convulsions. Put plainly: PTZ-induced convulsions. To be noted: PTZ 80 mg/kg. It counts as in vivo, male NIH-Swiss mice. The method, then: (§1) Male (25-30 g) NIH-Swiss mice (Harlan Sprague-Dawley, Frederick, Md.) were group housed in 32 cm×25 cm×15 cm plastic cages (10-15/cage) with food and water freely available. Mice were injected intraperitoneally with the test substance and challenged fifteen minutes later (unless otherwise specified) with NMDA (125 mg/kg), pentylenetetrazole (PTZ) (80mg/kg), strychnine (strych.) hemisulfate (2 mg/kg, as the base), bicuculline (bicuc.) (6 mg/kg) or maximal electroshock (MES). NMDA, PTZ, and strych. hemisulfate were dissolved in distilled water. Bicuculline was dissolved in 0.01 N HC1. These compounds were injected in a volume of 0.1 ml 1-aminocyclopropanecarboxylates were dissolved in distilled water and doses ≤500 mg/kg injected in a volume of 0.1 ml; doses >500 mg/kg were injected in proportionately larger volumes. Immediately after convulsant challenge, mice were placed in 28.5 cm×17.8 cm×12 cm plastic cages (1/cage) and observed for 15 minutes. The presence or absence of convulsions and the time to the first convulsive episode (latency) were noted. MES were produced by applying a 50 mA current through alligator clips attached to the pinnae for 0.2 s.

The next series has as its system NMDA-induced convulsions. Put plainly: NMDA-induced convulsions and death (anticonvulsant activity). To be noted: for ED50: Mus musculus, ip, read-out: ED50, protection against NMDA-induced convulsions and death; for dose-response curve shape: NMDA-induced convulsions; for fold more potent than parent compound (ACPC): anticonvulsant potency in vivo; for Complete protection against NMDA-induced convulsions / Effect on convulsions induced by NMDA (125): i.p.; for Effect on convulsions induced by NMDA (125): 15 min before NMDA 125 mg/kg, ACPC 100-500, ACPCE 39-195, ACPCM 19-190 mg/kg. Format: in vivo, male NIH-Swiss mice. The method, then: as §1

Series [2] relates to strychnine-induced convulsions. It counts as in vivo, male NIH-Swiss mice. To be noted: strychnine 2 mg/kg. The method, then:
as §1

Series [3] deals with bicuculline-induced convulsions. Format: in vivo, male NIH-Swiss mice. To be noted: bicuculline 6 mg/kg. The method, then: as §1
Series [4] deals with T1, strychnine-insensitive glycine receptors (NMDA receptor complex) (Rattus norvegicus, UniProt P35439).
T1 construct: Synaptic membranes were prepared from forebrains of adult; from tissue; host or cells: forebrain (whole brain minus cerebellum and brainstem) synaptic membranes of adult male Sprague-Dawley rats
Put plainly: Inhibition of [^3 H]glycine binding. It counts as male Sprague-Dawley rats (forebrain synaptic membranes). To be noted: rat forebrain synaptic membranes, 0-4°, 60 min. The method, then:
Membrane preparation: Synaptic membranes were prepared from forebrains of adult (250-350 g) male Sprague-Dawley rats (Taconic Farms, Germantown, N.Y.) by modification of the method of Bristow et al, (1986). In brief, forebrains (whole brain minus cerebellum and brainstem) were weighed and then disrupted for 30 s (Ultra-Turrax, Model STD) in 10 volumes of 0.32 M sucrose containing 5 mM HEPES/4.5 mM Tris pH 7.4. The homogenate was diluted to 50 volumes with this buffer and centrifuged for 10 minutes (1000×g). […]
[^3 H]Glycine binding: Immediately prior to assay, aliquots were thawed at 0-40 and "washed" 3 more times as described above. Membranes (0.1-0.3 mg prot.) were incubated for 60 minutes at 0-4° in HEPES-Tris buffer containing 1 mM MgCl2, ([^3 H]glycine (20 Ci/mmol, ISN, Irvine, Calif.), and drugs as indicated. Nonspecific binding was defined using 1 mM glycine. Incubations (1 ml) were terminated by centrifugation (Eppendorf Model 5414 Microfuge, 5 minutes) and the pellets washed superficially with 1 ml of assay buffer. The pellets were solubilized with 0.5 ml of NCS (Amersham, Arlington Heights, Ill.), agitated for 45 minutes, and 0.05 ml of glacial acetic acid added. Four ml of OCS (Amersham) was added and the radioactivity measured in a Beckman LS 5801 liquid scintillation counter.

A further series can be described thus: Overt behavioral effects. To be noted: for overt behavioral effects: ACPC 100-2000, ACPCE 39-195, ACPCM 19-571 mg/kg; for overt behavioral effects or neurotoxicity: mouse, in vivo.
The subject of series [5] is maximal electroshock seizures. Briefly: Maximal electroshock seizures (MES). It counts as in vivo, male NIH-Swiss mice. The method, then: as §1
The test system of series [6] is motor performance (rotarod). Put plainly: Motor performance, rotarod. It counts as in vivo, NIH-Swiss mice. From the text: (§2) Evaluation of motor performance:
Series [7] has as its system motor performance (horizontal wire). Put plainly: Motor performance, horizontal (hanging) wire test. It counts as in vivo, NIH-Swiss mice.
Text: as §2

Setting [8] is: NMDA 125 mg/kg, vehicle injected mice.
Setting [9] is: ACPC 100-2000, ACPCM 19-571 mg/kg, MK-801 1 mg/kg, thirty minutes.
[10] abbreviates: i.p., ACPC 400-2000, ACPCM 114-571, MK-801 1 mg/kg.

Where only a bound is given, the exact number is not on record here.

Six compounds from patent publication US6017957A (priority 1989, dated 2000) can be followed below.

In the case of `C1CCc2nnnn2CC1` [pentylenetetrazole, reference compound], in series [1], the “convulsions, % of mice” value is given as 100% and the latency to convulsions was 1.4 ± 0.2 min.

Turning to `CN[C@H](CC(=O)O)C(=O)O` [NMDA, N-methyl-D-aspartate, reference compound], in the series with NMDA-induced convulsions (setting [8]), the “convulsions and death, mice affected” value is “all”; the latency to convulsions was 4.6 ± 0.4 min.

Take `O=C1C[C@@H]2OCC=C3CN4CC[C@]56c7ccccc7N1[C@H]5[C@H]2[C@H]3C[C@H]46` [strychnine, reference compound]: in series [2], the “convulsions, % of mice” value was 100% and the latency to convulsions came to 3.1 ± 0.4 min.

Regarding `CN1CCc2cc3c(cc2[C@H]1[C@@H]1OC(=O)c2c1ccc1c2OCO1)OCO3` [bicuculline, reference compound], in series [3], the “convulsions, % of mice” value was 100% and the latency to convulsions was found to be 2.1 ± 0.3 min.

The ED50 is the midpoint of the dose-response relation. For orientation: IC50 means the concentration that inhibits the measured activity by half. Read a low IC50 as greater potency. Regarding `CCOC(=O)C1(N)CC1` [ACPCE, ethyl l-aminocyclopropanecarboxylate], in the series with NMDA-induced convulsions, the ED50 worked out at 100 mg/kg; the dose-response curve shape entry is “"bell-shaped" dose response curve”; the “fold more potent than parent compound (ACPC)” value is on record as ~ 2.3 fold; the “Complete protection against NMDA-induced convulsions” value is “neither ester could completely block NMDA-induced convulsions and deaths”. In addition, in the series with NMDA-induced convulsions, the “Effect on convulsions induced by NMDA (125)” value is listed as “+”. This compound also showed an IC50 in series [4] above 40 µM. Further, in “Overt behavioral effects”, the overt behavioral effects entry is “No overt behavioral effects” and the “overt behavioral effects or neurotoxicity” value was “no overt behavioral effects or neurotoxicity were observed”.

For `COC(=O)C1(N)CC1` [ACPCM, methyl 1-aminocyclopropanecarboxylate], in the series with NMDA-induced convulsions (ACPCM 114 mg/kg), the “maximum efficacy apparent after injection (time)” value is 5 to 15 min; the “onset and duration of anticonvulsant action relative to ACPC” value is recorded as “manifest more rapidly than ACPC but of shorter duration”. Besides, in the series on NMDA-induced convulsions, the ED50 turned out to be 46 mg/kg; the dose-response curve shape result is “"bell-shaped" dose response curve”; the “fold more potent than parent compound (ACPC)” value was ~ 5 fold; the “Complete protection against NMDA-induced convulsions” value is “neither ester could completely block NMDA-induced convulsions and deaths”. For the same compound, the “Effect on convulsions induced by NMDA (125)” value in the series with NMDA-induced convulsions was “+”. Further, in series [5] (ACPC 200-2000, ACPCM 114-571 mg/kg), the “effect on MES” value is reported as “Neither ACPC (200-2000 mg/kg) nor ACPCM (114-571 mg/kg) had a significant, dose-dependent effect”. For the same compound, the “Effect on convulsions induced by MES” value in series [5] (ACPC 200-2000, ACPCM 114-571 mg/kg i.p.) is “-”. Besides, the “impairment of performance in rotarod test” value in [6] (setting [9]) is recorded as “no impairment”. For the same compound, the “% Impairment, Rotarod” value in series [6] (setting [10]) amounted to 0%. In addition, the “impairment of performance in hanging (horizontal) wire test” value in series [7] (setting [9]) was “no impairment”. Moreover, the “% Impairment, Hanging Wire” value in series [7] (setting [10]) is recorded as 0%. The compound further had an IC50 in [4] above 40 µM. For the same compound, in “Overt behavioral effects”, the overt behavioral effects entry is on record as “No overt behavioral effects” and the “overt behavioral effects or neurotoxicity” value is listed as “no overt behavioral effects or neurotoxicity were observed”.
